From patent US20210213104A1, “GLUCAGON AND GLP-1 CO-AGONISTS FOR THE TREATMENT OF CHRONIC KIDNEY DISEASE AND DIABETIC KIDNEY DISEASE IN TYPE 2 DIABETES” (MEDIMMUNE LIMITED, priority 2020, published 2021)
“And” between values parts separate entries of the source, which are not always exact repeats. Identical values can stand only once.

Key:
Phase 2a: body weight = type: in vivo, human; conditions: for Weight, Absolute Change From Day 1, Difference in LS Mean Change (vs Placebo) / Weight, Absolute Change From Day 1, LS Mean Change / Weight, Percent Change from Day 1, Difference in LS Mean Change (vs Placebo) / Weight, Percent Change from Day 1, LS Mean Change: ANCOVA; for Weight, Absolute Change From Day 1, Difference in LS Mean Change (vs Placebo) / Weight, Absolute Change From Day 1, LS Mean Change / Weight, Percent Change from Day 1, Difference in LS Mean Change (vs Placebo) / Weight, Percent Change from Day 1, LS Mean Change / Weight, Absolute Change From Day 1, Mean / Weight, Absolute Change From Day 1, Median / Weight, Percent Change from Day 1, Mean / Weight, Percent Change from Day 1, Median / Weight, End of Dosing (Day 33), Mean / Weight, End of Dosing (Day 33), Median: ITT
Description: Cotadutide was titrated from 50 μg up to 300 μg and administered once daily by subcutaneous (SC) injection over 32 days.
Cotadutide was administered at 50 μg once daily for 4 days, followed by 100 μg daily for 7 days, 200 μg daily for 7 days, and 300 μg daily for 14 days (n=20). Placebo was administered one daily for 32 days (n=20). Cotadutide and placebo were administered in the morning. Dosing commenced following predose baseline vital signs, blood tests (including HbA1c), an electrocardiogram (ECG), body weight measurement, and bioimpedance spectroscopy (BIS). Subjects then returned for daily dosing or remained overnight locally until Day 5, and thereafter, had visits at weekly intervals until a maintenance dose of 300 μg was established. Thus, Cotadutide or placebo was administered at the study site by study personal for the first four doses and on site on Days 5, 12, 19, and 32. At all other times, subjects preformed dosing at home.
Weight was measured after the subject had toileted and removed bulky clothing, including shoes. Whenever possible, the same calibrated scale was used for each measurement for any given subject.

[1] = tested on: diet induced obese (DIO) mice; assay: Hyperinsulinemic clamps in diet induced obese (DIO) mice; type: in vivo
Description: Following 28 days of daily dosing with Cotadutide (10 nmol/kg), Liraglutide (5 nmol/kg; GLP-1 agonist) or g1437 (5 nmol/kg; a Gcg analog), mice underwent continuous infusion of 4 mU/kg/min insulin and [3H]-glucose to assess glucose turnover. Tissue-specific glucose uptake was assessed using 14C-2-deoxyglucose.

[2] = tested on: subjects with T2DM and renal impairment; assay: Phase 2a: adverse events; type: in vivo, human
Description: Only serious adverse events (SAEs) associated with protocol-related procedures were collected form time of signature of informed consent until the stat of the treatment period. All adverse events (AEs) were collected during the treatment period and follow-up period (Day 60±5). AEs and SAEs were graded by severity and relationship to Cotadutide or placebo, and SAEs were assessed for relationship to protocol procedures.

[3] = tested on: subjects with T2DM and renal impairment; assay: Phase 2a: blood pressure and heart rate (ABPM and office-based); type: in vivo, human
Source text: After instruction, subjects set up and applied an ambulatory blood pressure monitoring (ABPM) device. The subjects were advised to undergo normal daily activities while wearing the cuff and to avoid any strenuous forms of activity, bathing, or showering while wearing the cuff. The subjects were advised to remain still during the measurement with the arm relaxed at heart level. During ABPM, systolic BP, diastolic BP, heart rate pressure, heart rate, and mean arterial pressure readings were recorded over a period of 24 hours.
Based on post-hoc analysis, ABPM measurements were as follows: mean change from baseline to Day 32: −1.15 mmHg vs 2.21 mmHg (systolic, Cotadutide vs Placebo) and 2.54 mmHg vs 1.84 mmHg (diastolic, Cotadutide vs Placebo). Increases in supine blood pressure from baseline were also observed after 32 days of treatment: 1.44 mmHg vs 8.69 mmHg (systolic, Cotadutide vs placebo) and 0.57 mmHg vs 3.40 mmHg (diastolic, Cotadutide vs placebo); however, these changes were also not clinically significant and were numerically greater in the placebo group.
Based on office-based measurement, increases in postural blood pressure difference were observed after 32 days of treatment: 8.9 mmHg vs 0 1 mmHg (systolic, Cotadutide vs placebo) and 0.8 mmHg vs 1 8 mmHg (diastolic, Cotadutide vs placebo); however, these changes were not clinically significant.
By Day 32, the LS mean change from baseline in pulse rate (office-based measure) was an increase of 14.13 bpm for subjects in the Cotadutide dose group and 3.14 bpm for subjects in the placebo dose group (p <0.001). […] Mean heart rate changes from baseline to Day 32 were numerically greater while asleep (13.06 bpm vs −2.28 bpm) compared to awake (10.78 bpm vs −0.80 bpm) for subjects on Cotadutide vs placebo, respectively.

[4] = Day 1 to Day 33, Insulin Dose < 20 U/day subgroup
[5] = Day 1 to Day 33, Insulin Dose ≥ 20 U/day subgroup
[6] = Insulin Dose < 20 U/day subgroup
[7] = Insulin Dose ≥ 20 U/day subgroup
[8] = office-based measurement, after 32 days

CCCCCCCCCCCCCCCC(=O)N[C@@H](CCC(=O)NCCCC[C@H](NC(=O)[C@H](CC(=O)O)NC(=O)[C@H](CO)NC(=O)[C@@H](NC(=O)[C@H](Cc1ccccc1)NC(=O)[C@@H](NC(=O)CNC(=O)[C@H](CCC(N)=O)NC(=O)[C@H](CO)NC(=O)[C@@H](N)Cc1c[nH]cn1)[C@@H](C)O)[C@@H](C)O)C(=O)N[C@@H](CO)C(=O)N[C@@H](CCC(=O)O)C(=O)N[C@@H](Cc1ccc(O)cc1)C(=O)N[C@@H](CC(C)C)C(=O)N[C@@H](CC(=O)O)C(=O)N[C@@H](CO)C(=O)N[C@@H](CCC(=O)O)C(=O)N[C@@H](CCCNC(=N)N)C(=O)N[C@@H](C)C(=O)N[C@@H](CCCNC(=N)N)C(=O)N[C@@H](CC(=O)O)C(=O)N[C@@H](Cc1ccccc1)C(=O)N[C@H](C(=O)N[C@@H](C)C(=O)N[C@@H](Cc1c[nH]c2ccccc12)C(=O)N[C@@H](CC(C)C)C(=O)N[C@@H](CCC(=O)O)C(=O)N[C@@H](C)C(=O)NCC(=O)NCC(=O)O)C(C)C)C(=O)O [Cotadutide]
weight loss, percentage (Phase 2a: body weight; <20 U/day Insulin group): −5.38% | Weight, Absolute Change From Day 1, Difference in LS Mean Change (vs Placebo) (Phase 2a: body weight; [4]): -3.99 kg | Weight, Absolute Change From Day 1, LS Mean Change (Phase 2a: body weight; [4]): -4.72 kg | Weight, Percent Change from Day 1, Difference in LS Mean Change (vs Placebo) (Phase 2a: body weight; [4]): −4.74% | Weight, Percent Change from Day 1, LS Mean Change (Phase 2a: body weight; [4]): −5.38% | Weight, Absolute Change From Day 1, Mean (Phase 2a: body weight; [4]): -4.74 kg | Weight, Absolute Change From Day 1, Median (Phase 2a: body weight; [4]): -4.50 kg | Weight, Percent Change from Day 1, Mean (Phase 2a: body weight; [4]): −5.26% | Weight, Percent Change from Day 1, Median (Phase 2a: body weight; [4]): −4.53% | Weight, Absolute Change From Day 1, Difference in LS Mean Change (vs Placebo) (Phase 2a: body weight; [5]): -2.79 kg | Weight, Absolute Change From Day 1, LS Mean Change (Phase 2a: body weight; [5]): -2.66 kg | Weight, Percent Change from Day 1, Difference in LS Mean Change (vs Placebo) (Phase 2a: body weight; [5]): −2.66% | Weight, Percent Change from Day 1, LS Mean Change (Phase 2a: body weight; [5]): −2.69% | Weight, Absolute Change From Day 1, Mean (Phase 2a: body weight; [5]): -2.60 kg | Weight, Absolute Change From Day 1, Median (Phase 2a: body weight; [5]): -1.90 kg | Weight, Percent Change from Day 1, Mean (Phase 2a: body weight; [5]): −2.61% | Weight, Percent Change from Day 1, Median (Phase 2a: body weight; [5]): −2.00% | Weight, Absolute Change From Day 1, Difference in LS Mean Change (vs Placebo) (Phase 2a: body weight; Day 1 to Day 33, Total): -3.28 kg | Weight, Absolute Change From Day 1, LS Mean Change (Phase 2a: body weight; Day 1 to Day 33, Total): -3.41 kg | Weight, Percent Change from Day 1, Difference in LS Mean Change (vs Placebo) (Phase 2a: body weight; Day 1 to Day 33, Total): −3.47% | Weight, Percent Change from Day 1, LS Mean Change (Phase 2a: body weight; Day 1 to Day 33, Total): −3.69% | Weight, Absolute Change From Day 1, Mean (Phase 2a: body weight; Day 1 to Day 33, Total): -3.39 kg | Weight, Absolute Change From Day 1, Median (Phase 2a: body weight; Day 1 to Day 33, Total): -3.60 kg | Weight, Percent Change from Day 1, Mean (Phase 2a: body weight; Day 1 to Day 33, Total): −3.59% | Weight, Percent Change from Day 1, Median (Phase 2a: body weight; Day 1 to Day 33, Total): −3.68% | LS mean reduction in absolute body weight (Phase 2a: body weight; Day 1 to Day 33, all subjects): -3.41 kg | LS mean reduction in percentage body weight (Phase 2a: body weight; Day 1 to Day 33, all subjects): −3.69% and −3.7% | Weight, End of Dosing (Day 33), Mean (Phase 2a: body weight; [6]): 91.27 kg | Weight, End of Dosing (Day 33), Median (Phase 2a: body weight; [6]): 88.70 kg | Weight, End of Dosing (Day 33), Mean (Phase 2a: body weight; [7]): 94.13 kg | Weight, End of Dosing (Day 33), Median (Phase 2a: body weight; [7]): 96.15 kg | Weight, End of Dosing (Day 33), Mean (Phase 2a: body weight; Total): 93.08 kg | Weight, End of Dosing (Day 33), Median (Phase 2a: body weight; Total): 94.10 kg | weight loss, percentage (Phase 2a: body weight; ≥20 U/day Insulin group): −2.69% | insulin sensitivity [1]: improves insulin sensitivity | total insulin levels during the clamp ([1]; 4 mU/kg/min insulin infusion): remained lower | glucose uptake in brown adipose tissue ([1]; 14C-2-deoxyglucose): elevated | Fasting insulin compared with vehicle ([1]; 28 days daily dosing): dramatically lower | glucose disposal rate ([1]; clamp): increased | glucose infusion rate to maintain euglycemia ˜130 mg/dL ([1]; clamp): significantly higher | deaths ([2]; diabetic ketoacidosis and cholecystitis, deemed related): one death | Serious adverse events (SAEs) vs placebo ([2]; in vivo): balanced | TEAE that led to withdrawal ([2]; in vivo): two subjects | incidence of overall TEAEs and product-related TEAEs vs placebo ([2]; in vivo): higher | most frequently reported TEAEs (preferred term) ([2]; in vivo): nausea, vomiting, diarrhea, and dyspepsia | nausea, frequency ([2]; in vivo): 33% | treatment-related AEs, frequency ([2]; in vivo): 71% | vomiting, frequency ([2]; in vivo): 24% | Mean heart rate change from baseline to Day 32, asleep ([3]; ABPM): 13.06 bpm | Mean heart rate change from baseline to Day 32, awake ([3]; ABPM): 10.78 bpm | LS mean change from baseline in pulse rate (office-based measure) ([3]; Day 32): 14.13 bpm | changes in blood pressure ([3]; after 32 days of treatment): no clinically or statistically significant changes | supine diastolic blood pressure, increase from baseline ([3]; after 32 days of treatment): 0.57 mmHg | supine systolic blood pressure, increase from baseline ([3]; after 32 days of treatment): 1.44 mmHg | changes in blood pressure ([3]; after 32 days of treatment, listed as cotadutide): no significant changes | Pulse rate increase ([3]; by day 32, P<0.001): 11 beats per minute | differences in heart rate from baseline ([3]; end of the study (Day 60)): no meaningful differences | increase in postural blood pressure difference, diastolic [3, 8]: 0.8 mmHg | increase in postural blood pressure difference, systolic [3, 8]: 8.9 mmHg | 24-hour heart rate by ABPM, mean increase from baseline to Day 32 ([3]; post-hoc analysis): 11.85 bpm | ABPM diastolic blood pressure, mean change from baseline to Day 32 ([3]; post-hoc analysis): 2.54 mmHg | ABPM systolic blood pressure, mean change from baseline to Day 32 ([3]; post-hoc analysis): −1.15 mmHg
